Experimental data published in patent US20150290357A1, “ANTIMICROBIAL ADHESIVE” (GeneJet Biotech, Inc., priority 2014, published 2015).

System: staphylococcus aureus
Assay: Antimicrobial inhibition zone test based on ATCC6538p
Assay type: cell-based
Protocol: The antimicrobial adhesive prepared by the foregoing method is placed in a 7 ml glass vial and it is used to perform stability test for Ag/PP particulates, polymerization test for the cyanoacrylate monomers (as shown in Table 1), antimicrobial test for staphylococcus aureus (as shown in Table 2) and antimicrobial test for escherichia coli (as shown in Table 3).

SMILES: C=C(C#N)C(=O)OC(C)CCCCCC (centres unmarked) [Experiment C, 2-octyl cyanoacrylate]
- Increased in the diameter of inhibition zone (%) (compared to Control) (compared to Control (filter paper)): 16.4%
- Diameter of inhibition zone (on filter paper, ATCC6538p): 0.93 cm
